pEC50: −log10 of the molar value.
Columns and labels:
[1] = system: primary cultured guinea-pig urinary bladder (GPB) cells; assay: Membrane hyperpolarization (MHP) assay, DiBAC(4)3 / FLIPR; format: cell-based; details: Cavia porcellus; for pEC50: concentration that elicits 50% of the maximal response for the test sample; for Emax: maximal steady-state hyperpolarization, normalized to response with 10 μM P1075 (100%)
Method in brief: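 Primary smooth-muscle cells from male guinea-pig bladder, grown to confluence, loaded 30 min at 37° C with 5 μM DiBAC(4)3 in HEPES buffer pH 7.4. Fluorescence drop on FLIPR followed 25 min after compound; steady-state hyperpolarization normalized to 10 μM P1075 (100%), EC50 from four-parameter fit of five concentrations.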

O=C(Nc1cccnc1)NC(NC(=O)c1ccc(Cl)cc1)C(Cl)(Cl)Cl (stereo not drawn) [Example 41, 4-chloro-N-(2,2,2-trichloro-1-{[(3-pyridinylamino)carbonyl]amino}ethyl)benzamide]
melting point: 166 to 168 °C
pEC50 [1]: 6.85
Emax [1]: 98%

Cc1ccc(C(=O)NC(NC(=O)Nc2ccccc2)C(Cl)(Cl)Cl)cc1 (stereo not drawn) [Example 42, N-{1-[(anilinocarbonyl)amino]-2,2,2-trichloroethyl}-4-methylbenzamide]
melting point: 230 to 233 °C
pEC50 [1]: 5.67
Emax [1]: 66%

Cc1ccc(C(=O)NC(NC(=O)Nc2ccccc2F)C(Cl)(Cl)Cl)cc1 (stereo not drawn) [Example 43, 4-methyl-N-(2,2,2-trichloro-1-{[(2-fluoroanilino)carbonyl]amino}ethyl)benzamide]
melting point: 257 to 259 °C
pEC50 [1]: 5.92
Emax [1]: 80%

Cc1ccc(C(=O)NC(NC(=NC#N)Nc2cncnc2)C(Cl)(Cl)Cl)cc1 (stereo not drawn) [Example 48, 4-methyl-N-(2,2,2-trichloro-1-{[(cyanoimino)(5-pyrimidinylamino)methyl]amino}ethyl)benzamide]
melting point: 186 to 188 °C
pEC50 [1]: 6.70
Emax [1]: 96%

CCC(CC)C(NC(=O)c1ccc(Cl)cc1)NC(=NC#N)Nc1cccnc1 (stereo not drawn) [Example 59, 4-chloro-N-(1-{[(cyanoimino)(3-pyridinylamino)methyl]amino}-2-ethylbutyl)benzamide]
melting point: 185 to 187 °C
pEC50 [1]: 6.51
Emax [1]: 73%

CC(C)CC(NC(=O)c1ccc(Cl)cc1)NC(=NC#N)Nc1cccnc1 (stereo not drawn) [Example 60, 4-chloro-N-(1-{[(cyanoimino)(3-pyridinylamino)methyl]amino}-3-methylbutyl)benzamide]
melting point: 193 to 194 °C
pEC50 [1]: 6.00
Emax [1]: 62%

N#CN=C(Nc1cccnc1)NC(NC(=O)c1ccc(Cl)cc1)C1CCCCC1 (stereo not drawn) [Example 61, 4-chloro-N-[{[(cyanoimino)(3-pyridinylamino)methyl]amino}(cyclohexyl)methyl]benzamide]
melting point: 190 to 192 °C
pEC50 [1]: 6.48
Emax [1]: 36%

CC(C)(C)CC(NC(=O)c1ccc(Cl)cc1)NC(=NC#N)Nc1cccnc1 (stereo not drawn) [Example 62, 4-chloro-N-(1-{[(cyanoimino)(3-pyridinylamino)methyl]amino}-3,3-dimethylbutyl)benzamide]
melting point: 181 to 183 °C
pEC50 [1]: 6.48
Emax [1]: 81%

CC(C)C(NC(=O)c1ccc(Cl)cc1)NC(=NC#N)Nc1cccnc1 (stereo not drawn) [Example 63, 4-chloro-N-(1-{[(cyanoimino)(3-pyridinylamino)methyl]amino}-2-methylpropyl)benzamide]
melting point: 182 to 184 °C
pEC50 [1]: 5.36
Emax [1]: 73%

N#CN=C(Nc1cccnc1)NC(NC(=O)c1ccc(Cl)cc1)C(F)(F)F (stereo not drawn) [Example 64, 4-chloro-N-(1-{[(cyanoimino)(3-pyridinylamino)methyl]amino}-2,2,2-trifluoroethyl)benzamide]
melting point: 136 to 138 °C
pEC50 [1]: 6.40
Emax [1]: 89%

CCC(CC)C(NC(=O)c1ccc(Cl)cc1)NC(=C[N+](=O)[O-])Nc1cccnc1 (stereo not drawn) [Example 68, 4-chloro-N-(2-ethyl-1-{[2-nitro-1-(3-pyridinylamino)ethenyl]amino}butyl)benzamide]
melting point: 192 to 193 °C
pEC50 [1]: 6.37
Emax [1]: 99%

CC(C)(C)C(NC(=O)c1ccc(Cl)cc1)NC(=NC#N)Nc1cccc(F)c1 (stereo not drawn) [Example 70, 4-chloro-N-(1-{[(cyanoimino)(3-fluoroanilino)methyl]amino}-2,2-dimethylpropyl)benzamide]
melting point: 167 to 170 °C
pEC50 [1]: 6.49
Emax [1]: 74%

CCC(NC(=O)c1ccc(Cl)cc1)NC(=NC#N)Nc1cccnc1 (stereo not drawn) [Example 84, 4-chloro-N-(1-{[(cyanoimino)(3-pyridinylamino)methyl]amino}propyl)benzamide]
melting point: 181 to 183 °C
pEC50 [1]: 5.22
Emax [1]: 69%

N#CN=C(NCNC(=O)c1ccc(Cl)cc1)Nc1cccnc1 [Example 85, 4-chloro-N-({[(cyanoimino)(3-pyridinylamino)methyl]amino}methyl)benzamide]
melting point: 196 to 197 °C
pEC50 [1]: < 5.00
Emax [1]: < 20%

CC(C)(C1CCCCC1)C(NC(=O)c1ccc(Cl)cc1)NC(=NC#N)Nc1cccnc1 (stereo not drawn) [Example 93, 4-chloro-N-(1-{[(cyanoimino)(3-pyridinylamino)methyl]amino}-2-cyclohexyl-2-methylpropyl)benzamide]
melting point: 181 to 183 °C
pEC50 [1]: 6.85
Emax [1]: 75%

N#CN=C(Nc1cccnc1)NC(CC12CC3CC(CC(C3)C1)C2)NC(=O)c1ccc(Cl)cc1 (stereo not drawn) [Example 95, N-(2-(1-adamantyl)-1-{[(cyanoimino)(3-pyridinylamino)methyl]amino}ethyl)-4-chlorobenzamide]
melting point: 202 to 203 °C
pEC50 [1]: 6.08
Emax [1]: 97%

CN(C)CC(C)(C)C(NC(=O)c1ccc(Cl)cc1)NC(=NC#N)Nc1cccnc1 (stereo not drawn) [Example 97, 4-chloro-N-[1-{[(cyanoimino)(3-pyridinylamino)methyl]amino}-3-(dimethylamino)-2,2-dimethylpropyl]benzamide]
melting point: 101 to 103 °C
pEC50 [1]: 5.80
Emax [1]: 74%

CSCCC(NC(=O)c1ccc(Cl)cc1)NC(=NC#N)Nc1cccnc1 (stereo not drawn) [Example 99, 4-chloro-N-[1-{[(cyanoimino)(3-pyridinylamino)methyl]amino}-3-(methylsulfanyl)propyl]benzamide]
melting point: 104 to 105 °C
pEC50 [1]: 5.46
Emax [1]: 84%

N#CN=C(Nc1cccnc1)NC(NC(=O)c1ccc(Cl)cc1)C12CC3CC(CC(C3)C1)C2 (stereo not drawn) [Example 100, N-(1-adamantyl{[(cyanoimino)(3-pyridinylamino)methyl]amino}methyl)-4-chlorobenzamide]
melting point: 209 to 210 °C
pEC50 [1]: 6.74
Emax [1]: 87%

CCC1(C(NC(=O)c2ccc(Cl)cc2)NC(=NC#N)Nc2cccnc2)COCOC1 (stereo not drawn) [Example 101, 4-chloro-N-[{[(cyanoimino)(3-pyridinylamino)methyl]amino}(5-ethyl-1,3-dioxan-5-yl)methyl]benzamide]
melting point: 194 to 195 °C
pEC50 [1]: 5.21
Emax [1]: 59%

CC(C)(Cc1ccccc1)C(NC(=O)c1ccc(Cl)cc1)NC(=NC#N)Nc1cccnc1 (stereo not drawn) [Example 102, 4-chloro-N-(1-{[(cyanoimino)(3-pyridinylamino)methyl]amino}-2,2-dimethyl-3-phenylpropyl)benzamide]
melting point: 182 to 183 °C
pEC50 [1]: < 5.00
Emax [1]: < 20%

CC(C)(C)C(NC(=O)c1ccc(Br)cc1)NC(=NC#N)Nc1cccnc1 (stereo not drawn) [Example 105, 4-bromo-N-(1-{[(cyanoimino)(3-pyridinylamino)methyl]amino}-2,2-dimethylpropyl)benzamide]
melting point: 180 to 181 °C
pEC50 [1]: 7.28
Emax [1]: 106%

C=CCC(C)(C)C(NC(=O)c1ccc(Cl)cc1)NC(=N[N+](=O)[O-])Nc1cccnc1 (stereo not drawn) [Example 127, 4-chloro-N-(1-{[(nitroimino)(3-pyridinylamino)methyl]amino}-2,2-dimethyl-4-pentenyl)benzamide]
melting point: 200 to 203 °C
pEC50 [1]: 5.92
Emax [1]: 65%

CC(C)(Cc1ccccc1)C(NC(=O)c1ccc(Cl)cc1)NC(=N[N+](=O)[O-])Nc1cccnc1 (stereo not drawn) [Example 128, 4-chloro-N-(1-{[(nitroimino)(3-pyridinylamino)methyl]amino}-2,2-dimethyl-3-phenylpropyl)benzamide]
melting point: 205 to 207 °C
pEC50 [1]: 6.33
Emax [1]: 116%

CC1=C(CC(NC(=O)c2ccc(Cl)cc2)NC(=N[N+](=O)[O-])Nc2cccnc2)C(C)(C)CCC1 (stereo not drawn) [Example 129, 4-chloro-N-[1-{[(nitroimino)(3-pyridinylamino)methyl]amino}-2-(2,6,6-trimethyl-1-cyclohexen-1-yl)ethyl]benzamide]
melting point: 217 to 218 °C
pEC50 [1]: 6.92
Emax [1]: 132%

CC(C)(C1CCCCC1)C(NC(=O)c1ccc(Cl)cc1)NC(=N[N+](=O)[O-])Nc1cccnc1 (stereo not drawn) [Example 130, 4-chloro-N-(1-{[(nitroimino)(3-pyridinylamino)methyl]amino}-2-cyclohexyl-2-methylpropyl)benzamide]
melting point: 201 to 203 °C
pEC50 [1]: 6.28
Emax [1]: 147%

C=CCOCC(CC)(COCC=C)C(NC(=O)c1ccc(Cl)cc1)NC(=N[N+](=O)[O-])Nc1cccnc1 (stereo not drawn) [Example 131, N-(2,2-bis[(allyloxy)methyl]-1-{[(nitroimino)(3-pyridinylamino)methyl]amino}butyl)-4-chlorobenzamide]
melting point: 175 to 180 °C
pEC50 [1]: 5.70
Emax [1]: 53%

CCC(CC)(CCC#N)C(NC(=O)c1ccc(Cl)cc1)NC(=N[N+](=O)[O-])Nc1cccnc1 (stereo not drawn) [Example 132, 4-chloro-N-(4-cyano-1-{[(nitroimino)(3-pyridinylamino)methyl]amino}-2,2-diethylbutyl)benzamide]
melting point: 100 to 110 °C
pEC50 [1]: 6.89
Emax [1]: 124%

O=C(NC(CC12CC3CC(CC(C3)C1)C2)NC(=N[N+](=O)[O-])Nc1cccnc1)c1ccc(Cl)cc1 (stereo not drawn) [Example 134, N-(2-(1-adamantyl)-1-{[(nitroimino)(3-pyridinylamino)methyl]amino}ethyl)-4-chlorobenzamide]
melting point: 219 to 220 °C
pEC50 [1]: 5.70
Emax [1]: 86%

Source: patent publication US20020028836A1, “Potassium channel openers” (priority 2000, published 2002)
